Data reported in patent US9833497B2, “Human originated EGF domain proteins and use of the same” (CHENGDU SOURCEBIO LIMITED-LIABILITY COMPANY, priority 2013, dated 2017).

Assays:
Assay type in all cases: cell-based
Enterobacter cloacae = assay: MIC against Gram-negative bacteria: Enterobacter cloacae; conditions: 5×10^5 CFU/mL
Method in brief: (§1)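 Inocula prepared by growing LB cultures at 37° C to 0.5 McFarland, centrifuging at 4000×g, and resuspending in fresh medium. Final density 5×10^5 CFU/mL per well with two-fold dilutions of purified EGF domain protein; shaking incubation at 37° C.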

Aeromonas hydrophila = assay: MIC against Gram-negative bacteria: Aeromonas hydrophila; conditions: 5×10^5 CFU/mL
Method in brief: as §1

Serratia marcescens = assay: MIC against Gram-negative bacteria: Serratia marcescens; conditions: 5×10^5 CFU/mL
Method in brief: as §1

Citrobacter diversus = assay: MIC against Gram-negative bacteria: Citrobacter diversus; conditions: 5×10^5 CFU/mL
Method in brief: as §1

E. coli BL21 = assay: MIC against Gram-negative bacteria: E. coli BL21; conditions: 5×10^5 CFU/mL
Method in brief: as §1

Pseudomonas aeruginosa = assay: MIC against Gram-negative bacteria: Pseudomonas aeruginosa; conditions: 5×10^5 CFU/mL
Method in brief: as §1

Moraxella catarrhalis = assay: MIC against Gram-negative bacteria: Moraxella catarrhalis; conditions: 5×10^5 CFU/mL
Method in brief: as §1

Proteus mirabilis = assay: MIC against Gram-negative bacteria: Proteus mirabilis; conditions: 5×10^5 CFU/mL
Method in brief: as §1

E. coli DH5α = assay: Antibacterial activity: MIC and growth curve against E. coli DH5α in 96-well plate; conditions: minimal inhibitory concentration against E. coli DH5α; 96-well plate, 5×10^5 CFU/mL, 37° C., judged after 8 h
Method in brief: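 Log-phase bacteria (OD600 ~0.5) resuspended in LB at 5×10^5 CFU/mL, exposed to recombinant protein at 50, 25, 12.5 μg/mL final in triplicate, 37 °C shaking at 175 rpm. OD600 read every 30 min; MIC is lowest concentration showing no growth.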

Proteus vulgaris = assay: MIC against Gram-negative bacteria: Proteus vulgaris; conditions: 5×10^5 CFU/mL
Method in brief: as §1

Klebsiella pneumonia = assay: MIC against Gram-negative bacteria: Klebsiella pneumonia; conditions: 5×10^5 CFU/mL
Method in brief: as §1

[1] = 10 h cultivation at 37° C., two-fold serial dilution

Row | Substance | MIC (E. coli DH5α) [µg/mL] | MIC against E. cloacae (Enterobacter cloacae; 96-well plate, 37° C., 10 h) [µg/mL] | MIC against A. hydrophila (Aeromonas hydrophila; 96-well plate, 37° C., 10 h) [µg/mL] | MIC against S. marcescens (Serratia marcescens; 96-well plate, 37° C., 10 h) [µg/mL] | MIC against C. diversus (Citrobacter diversus; 96-well plate, 37° C., 10 h) [µg/mL] | MIC against E. coli BL21 (E. coli BL21; 96-well plate, 37° C., 10 h) [µg/mL] | MIC against P. aeruginosa (Pseudomonas aeruginosa; 96-well plate, 37° C., 10 h) [µg/mL] | MIC against M. catarrhalis (Moraxella catarrhalis; 96-well plate, 37° C., 10 h) [µg/mL] | MIC against P. mirabilis (Proteus mirabilis; 96-well plate, 37° C., 10 h) [µg/mL] | MIC against P. vulgaris (Proteus vulgaris; 96-well plate, 37° C., 10 h) [µg/mL] | MIC against K. pneumonia (Klebsiella pneumonia; 96-well plate, 37° C., 10 h) [µg/mL] | MIC E. cloacae (Enterobacter cloacae; [1]) [µg/mL] | MIC A. hydrophila (Aeromonas hydrophila; [1]) [µg/mL] | MIC S. marcescens (Serratia marcescens; [1]) [µg/mL] | MIC C. diversus (Citrobacter diversus; [1]) [µg/mL] | MIC E. coli BL21 (E. coli BL21; [1]) [µg/mL] | MIC P. aeruginosa (Pseudomonas aeruginosa; [1]) [µg/mL] | MIC M. catarrhalis (Moraxella catarrhalis; [1]) [µg/mL] | MIC P. mirabilis (Proteus mirabilis; [1]) [µg/mL] | MIC P. vulgaris (Proteus vulgaris; [1]) [µg/mL] | further results
1 | PRT312 (DNNECTSDINLCGSKGICQNTPGSFTCECQRGFSLDQTGSSCE; listed as Homo sapiens) | 50 | – | – | – | – | – | – | – | – | – | – | – | – | – | – | – | – | – | – | – | MIC (Enterobacter cloacae; E. cloacae, 10 h cultivation at 37° C.): 12.5 µg/mL; MIC (Aeromonas hydrophila; A. hydrophila, 10 h cultivation at 37° C.): 25 µg/mL; MIC (Serratia marcescens; S. marcescens, 10 h cultivation at 37° C.): 50 µg/mL; MIC (Citrobacter diversus; C. diversus, 10 h cultivation at 37° C.): 50 µg/mL; MIC (E. coli BL21; E. coli BL21, 10 h cultivation at 37° C.): 12.5 µg/mL; MIC (Pseudomonas aeruginosa; P. aeruginosa, 10 h cultivation at 37° C.): 50 µg/mL; MIC (Moraxella catarrhalis; M. catarrhalis, 10 h cultivation at 37° C.): 25 µg/mL; MIC (Proteus mirabilis; P. mirabilis, 10 h cultivation at 37° C.): 12.5 µg/mL; MIC (Proteus vulgaris; P. vulgaris, 10 h cultivation at 37° C.): 25 µg/mL; MIC (Klebsiella pneumonia; K. pneumonia, 10 h cultivation at 37° C.): 25 µg/mL
2 | PRT592 (CDCDFRGTEGPGCDKASGRCLCRPGLTGPRCDQCQRGYCNRYPVCVA; listed as Homo sapiens) | 50 | 50 | 12.5 | 12.5 | 50 | 12.5 | 50 | 100 | 50 | 25 | 12.5 | – | – | – | – | – | – | – | – | – | –
3 | PRT628 (CTCNQHGTCDPNTGICVCSHHTEGPSCERCLPGFYGNPFAGQADDCQP; listed as Homo sapiens) | 12.5 | – | – | – | – | – | – | – | – | – | – | – | – | – | – | – | – | – | – | – | MIC E. cloacae (Enterobacter cloacae; 96-well plate, 37° C., 10 h): 25 µg/mL; MIC A. hydrophila (Aeromonas hydrophila; 96-well plate, 37° C., 10 h): 12.5 µg/mL; MIC S. marcescens (Serratia marcescens; 96-well plate, 37° C., 10 h): 25 µg/mL; MIC C. diversus (Citrobacter diversus; 96-well plate, 37° C., 10 h): 25 µg/mL; MIC E. coli BL21 (E. coli BL21; 96-well plate, 37° C., 10 h): 12.5 µg/mL; MIC P. aeruginosa (Pseudomonas aeruginosa; 96-well plate, 37° C., 10 h): 25 µg/mL; MIC M. catarrhalis (Moraxella catarrhalis; 96-well plate, 37° C., 10 h): 12.5 µg/mL; MIC P. mirabilis (Proteus mirabilis; 96-well plate, 37° C., 10 h): 25 µg/mL; MIC P. vulgaris (Proteus vulgaris; 96-well plate, 37° C., 10 h): 12.5 µg/mL; MIC K. pneumonia (Klebsiella pneumonia; 96-well plate, 37° C., 10 h): 12.5 µg/mL
4 | PRT1044 (FGQDCAETCDCAPDARCFPANGACLCEHGFTGDRCT; listed as Homo sapiens) | 100 | – | – | – | – | – | – | – | – | – | – | 50 | 50 | 50 | 50 | 50 | 50 | 25 | 12.5 | 25 | MIC K. pneumonia (Klebsiella pneumonia; [1]): 12.5 µg/mL
5 | PRT559 (CHCSAEGSLHAACDPRSGQCSCRPRVTGLRCDTCVPGAYNFPYCEA; listed as Homo sapiens) | 25 | 25 | 50 | 25 | 25 | 50 | 25 | 12.5 | 25 | 50 | 12.5 | – | – | – | – | – | – | – | – | – | –
6 | PRT1103 (DHDECASSPCQNGAVCQDGIDGYSCFCVPGYQGRHCD; listed as Homo sapiens) | 12.5 | – | – | – | – | – | – | – | – | – | – | 50 | 25 | 12.5 | 12.5 | 25 | 12.5 | 25 | 50 | 25 | MIC K. pneumonia (Klebsiella pneumonia; [1]): 25 µg/mL
